According to patent US8759308B2, “RNAi probes targeting cancer-related proteins” (The University of British Columbia, priority 2002, dated 2014):
d = 2'-deoxy (DNA); r = 2'-OH (RNA)

What was measured:
[1] = human, in vivo; cited from earlier work
KH OS and U-2 OS cells = experiment: DXR effects in OS cells (TUNEL, protein expression); assay type: cell-based, human
Protocol: Sustained silencing of CLU gene expression in OS cells by siRNA results in significant sensitization to apoptosis induced by genotoxic and oxidative stress. Prior to CLU functional assays, we analyzed the DXR effects in OS cells since the drug-related reported effects vary in different cell-types (Gewritz et al., Biochem. Pharmacol. 57: 727-741 (1999)). As the DXR plasma concentration in treated patients fall into a range of 1-2 μM and decline into a range of 0.025-0.25 μM within 1 h (Muller et al, Cancer Chemother. Pharmacol., 32: 379-384 (1993)) cells were treated with 0.35 and 1 μM of DXR. To analyze the extent of the DXR-mediated cell death we scored apoptosis by TUNEL. Attached cells following drug treatment for 24 h underwent significant morphological changes as compared to non-treated control cells. […] On-going apoptosis is also apparent 24 h later, verifying that apoptosis is a dynamic process that continues even after DXR removal from the medium.

clusterin [2] = experiment: Clusterin Western blot in A549 cells; assay type: cell-based, human; settings: 10, 50 and 100 nM
clusterin transcript [3] = experiment: Clusterin mRNA by Northern blot in OVCAR3 cells; assay type: cell-based, human; settings: 1, 10 or 50 nM, two days
Protocol: OVCAR3 ovarian cancer cells were treated once with 1, 10 or 50 nM CLU5, scrambled control or a vehicle only control. An untreated control was also run. After two days, total RNA was extracted and analyzed for clusterin and GAPDH mRNA by Northern blot.

clusterin [4] = experiment: Clusterin Western blot in PC3 cells; assay type: cell-based, human; settings: 10, 50 and 100 nM
Protocol: 8 species of siRNA targeting clusterin were formed as double-stranded RNA from Seq. ID NOs. 1 and 2, 3 and 4, 5 and 6, 7 and 8, 9 and 10, 11 and 12, 13 and 14, and 15 and 16, and labeled as CLU1-CLU 8, respectively. PC3 cells were transfected with various doses (10, 50 and 100 nM) of the 8 species of siRNA or scrambled control. Three days after treatment, proteins were extracted and analyzed by Western blotting for clusterin levels (MW=40 and 60 kDa).
Densitometric measurements were performed after normalization to a vinculin control the blots for cells treated with CLU-5 (Seq ID Nos. 9 and 10). “Oligo” cells were treated with oligoFECTAMINE™ only.

clusterin transcript [5] = experiment: Clusterin mRNA by Northern blot in MCF-7 cells; assay type: cell-based, human; settings: 5, 25 or 50 nM, two days
Protocol: MCF-7 human breast cancer cells were transfected with 5, 25 or 50 nM CLU-5 or a scrambled control, or with oligoFECTAMINE™ vehicle alone. Two days after transfection, RNA was extracted and analyzed for clusterin and GAPDH by Northern blotting.

clusterin transcript [6] = experiment: Clusterin transcript by Real Time PCR in A549 cells; assay type: cell-based, human; settings: 10, 50 or 100 nM, two days
Protocol: (§1) PC3 cells were transfected with siRNA at levels of 10, 50 or 100 nM or with 100 nM scrambled control. Two days after transfection, total RNA was extracted and the level of clusterin transcript was quantified by Real Time PCR.
The experiment of Example 9 was repeated using A549 cells in place of PC3 cells.

clusterin transcript [7] = experiment: Clusterin transcript by Real Time PCR in PC3 cells; assay type: cell-based, human; settings: 10, 50 or 100 nM, two days
Protocol: as §1

clusterin [8] = experiment: Clusterin Western blot in clusterin overexpressing LNCaP/T1 cells; assay type: cell-based, human; settings: 10 nM, 1 pulse, three days
Protocol: Clusterin overexpressing LNCaP)/T1 cells were transfected (1 pulse) with 10 nM CLU-5 siRNA or scrambled control. Three days after treatment, the proteins were extracted and analyzed by Western blotting for clusterin.

PC3 cells = experiment: PC3 cell viability with siRNA and Taxol, MTT assay; assay type: cell-based, human; settings: 25 nM siRNA, then Taxol three days
Protocol: PC3 cells were treated once with 25 nM human clusterin siRNAs (CLU-3 and CLU-5), a scrambled control, or oligoFECTAMINE™ only. After two days of treatment, the medium was replaced with medium containing various concentrations of Taxol (Paclitaxel). After three days of incubation, cell viability was determined by MTT assay. FIG. 11 summarizes the results.

clusterin transcript [9] = experiment: Clusterin transcript by Northern blot in PC3 cells; assay type: cell-based, human; settings: all doses (10, 50 or 100 nM), two days
Protocol: PC3 cells were treated (1 pulse) with CLU-3 (Seq ID NOs. 5 and 6) or CLU-5 (Seq ID Nos 9 and 10) or with a scrambled control at levels of 10, 50 or 100 nM, or with oligoFECTAMINE™ only. After two days total RNA was extracted and analyzed for clusterin and GADPH by Northern blotting. Densitometric measurement was performed. FIG. 10 presents results of these measurements after normalization to GADPH.

clusterin transcript [10] = experiment: Clusterin mRNA by Northern blot in MDA-MB 231 cells; assay type: cell-based, human; settings: 5, 50 or 100 nM, two days
Protocol: MDA-MB 231 human breast cancer cells were transfected with 5, 50 or 100 nM CLU-5 or a scrambled control, or with oligoFECTAMINE™ vehicle alone. Two days after transfection, RNA was extracted and analyzed for clusterin and GAPDH by Northern blotting.

clusterin [11] = experiment: Clusterin Western blot in MCF-7 cells; assay type: cell-based, human; settings: 5 and 50 nM, three days
Protocol: MCF-7 cells were transfected with various doses (5 and 50 nM) of CLU-5 siRNA or scrambled control. Three days after treatment, proteins were extracted and analyzed by Western blotting for clusterin levels (MW=40 and 60 kDa).

Compound | plasma concentration [1] | bcl-2 expression (KH OS and U-2 OS cells; KH OS and U-2 OS cells) | accumulation of p53, p21 and bax (KH OS and U-2 OS cells; OS cell lines) | PARP cleavage (KH OS and U-2 OS cells; OS cells after DXR treatment) | apoptosis by TUNEL (KH OS and U-2 OS cells; OS cells, 0.35 and 1 μM DXR, 24 h) | clusterin by densitometry normalized to vinculin (clusterin [2]) | amount of clusterin transcript normalized to GAPDH (clusterin transcript [3]) | clusterin by densitometry normalized to vinculin (clusterin [4]) | amount of clusterin (Western blot) (clusterin [4]; three days) | amount of clusterin transcript normalized to GAPDH (clusterin transcript [5]) | amount of clusterin transcript (clusterin transcript [6]) | amount of clusterin transcript (clusterin transcript [7]) | clusterin detected by Western blot (clusterin [8]) | viable cells with siRNA plus Taxol (PC3 cells) | amount of clusterin transcript normalized to GADPH (clusterin transcript [9]) | amount of clusterin transcript normalized to GAPDH (clusterin transcript [10]) | amount of clusterin protein relative to scrambled control (clusterin [11])
COc1cccc2c1C(=O)c1c(O)c3c(c(O)c1C2=O)C[C@@](O)(C(=O)CO)C[C@@H]3O[C@H]1C[C@H](N)[C@H](O)[C@H](C)O1 [DXR] | 1000 to 2000 nM | no altered expression | found only in U-2 OS cells | accompanied by PARP cleavage | a significant number of them are TUNEL positive | – | – | – | – | – | – | – | – | – | – | – | –
CLU-5: clusterin siRNA, double-stranded RNA from Seq. ID NOs. 9 and 10 (chain 1 AUGAUGAAGACUCUGCUGCTT; chain 2 GCAGCAGAGUCUUCAUCAUTT; sugars from the 5' end r19 d2, backbone not given here) | – | – | – | – | – | dose dependent response | Substantial dose dependent reduction | dose dependent response | best results | Substantial dose-dependent reduction | reduction in the amount of clusterin transcript | reduction in the amount of clusterin transcript | No clusterin was detected | worked in synergy | Reduction in the amount of clusterin transcript | Substantial reduction | reduction in the amount of clusterin protein
